{"source": "patent US11793200B2", "about": "“Hypochlorous acid disinfectant and its production method” (SUPER AQUA INTERNATIONAL CO., LTD., priority 2019, dated 2023)", "origin": "cited, not measured here", "tested_on": "coliform", "conditions": "compared with hypochlorite ion (CLO-); both effective free chlorine; FIG. 2", "data": [{"compound": "OCl", "note": "[hypochlorous acid (HCLO), Hypochlorous acid]", "values": [{"measurement": "sterilization of hypochlorous acid (HCLO) relative to hypochlorite ion (CLO-)", "result": 80, "unit": "times"}]}]}
